Laboratory results from patent US20240335431A1, “1-H-PYRROLO[2,3-c]PYRIDINE COMPOUNDS” (Acerta Pharma B.V., priority 2023, published 2024).
Read-outs that look alike come from different tables or passages of the source.

Key:
MOLM-13 cells = assay: Proliferation assay, MOLM-13 (CellTiter-Glo, 7 days); assay type: cell-based, human
How it was run: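 Cells were seeded at line-specific low densities for linear growth, exposed to 3.16-fold serial compound dilutions at 0.1% DMSO, and incubated 7 days at 37 °C, 5% CO2. Viability was read by CellTiter-Glo 2.0 luminescence; IC50 came from one-site fits of % inhibition, normalized between DMSO-treated cells (100%) and a day-0 plate (0%).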

[1] = Caco-2 cell monolayers intrinsic permeation assay in the presence of efflux inhibitors; assay type: in vitro ADME; details: Caco-2, with efflux inhibitors
How it was run: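 Caco-2 monolayers grown 14–18 days on Transwells; compound dosed apically in HBSS with efflux inhibitors (Zosuquidar, Benzbromarone, KO-143), inhibitors also basolateral, 37 °C with shaking. Sampled at 0, 45 and 120 min, analysed by LC/MS/MS; apical-to-basolateral Papp (cm/s) calculated.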

Row | SMILES | IC50 (MOLM-13 cells; Homo sapiens, MOLM-13, 168 h) | Papp A→B [1] | IC50 (MOLM-13 cells)
1 | CC(C)N(C(=O)c1cc(F)ccc1-n1cc(C(=O)C2CCN(C(=O)[C@H]3NC[C@@H]4C[C@@H]43)CC2)c2ccncc21)C(C)C [Example 19, 2-(3-(1-((1S,2S,5R)-3-Azabicyclo[3.1.0]hexane-2-carbonyl)piperidine-4-carbonyl)-1H-pyrrolo[2,3-c]pyridin-1-yl)-5-fluoro-N,N-diisopropylbenzamide] | 34 nM | 2.6 ×10⁻⁶ cm/s | 
2 | CC(C)N(C(=O)c1cc(F)ccc1-n1cc(C(=O)C2CCN(C(=O)[C@H]3NC4CCC3CC4)CC2)c2ccncc21)C(C)C [Example 20, (S)-2-(3-(1-(2-Azabicyclo[2.2.2]octane-3-carbonyl)piperidine-4-carbonyl)-1H-pyrrolo[2,3-c]pyridin-1-yl)-5-fluoro-N,N-diisopropylbenzamide] | 40 nM | 0.8 ×10⁻⁶ cm/s | 
3 | CC(C)N(C(=O)c1cc(F)ccc1-n1cc(C(=O)C2CCN(C(=O)[C@H]3NC[C@@H]4CCC[C@@H]43)CC2)c2ccncc21)C(C)C [Example 21, 5-Fluoro-N,N-diisopropyl-2-(3-(1-((1S,3αR,6αS)-octahydrocyclopenta[c]pyrrole-1-carbonyl)piperidine-4-carbonyl)-1H-pyrrolo[2,3-c]pyridin-1-yl)benzamide] | 34 nM | 1.7 ×10⁻⁶ cm/s | 
4 | CC(C)N(C(=O)c1cc(F)ccc1-n1cc(C(=O)C2CCN(C(=O)[C@H]3N[C@H]4C[C@@H]3[C@@H](F)C4)CC2)c2ccncc21)C(C)C [Example 22, 5-Fluoro-2-(3-(1-((1S,3S,4S,5S)-5-fluoro-2-azabicyclo[2.2.1]heptane-3-carbonyl)piperidine-4-carbonyl)-1H-pyrrolo[2,3-c]pyridin-1-yl)-N,N-diisopropylbenzamide] | 30 nM | 3 ×10⁻⁶ cm/s | 
5 | CC(C)N(C(=O)c1cc(F)ccc1-n1cc(C(=O)C2CCN(C(=O)[C@@H]3CCC4(CC4)N3)CC2)c2ccncc21)C(C)C [Example 24, (S)-2-(3-(1-(4-Azaspiro[2.4]heptane-5-carbonyl)piperidine-4-carbonyl)-1H-pyrrolo[2,3-c]pyridin-1-yl)-5-fluoro-N,N-diisopropylbenzamide] | 32 nM | 18.2 ×10⁻⁶ cm/s | 
6 | CC(C)N(C(=O)c1cc(F)ccc1-n1cc(C(=O)C2CCN(C(=O)[C@@H]3CC4(CC4)CN3)CC2)c2ccncc21)C(C)C [Example 26, (S)-2-(3-(1-(5-Azaspiro[2.4]heptane-6-carbonyl)piperidine-4-carbonyl)-1H-pyrrolo[2,3-c]pyridin-1-yl)-5-fluoro-N,N-diisopropylbenzamide] | 103 nM | 0.8 ×10⁻⁶ cm/s | 
7 | CC(C)N(C(=O)c1cc(F)ccc1-n1cc(C(=O)C2CCN(C(=O)[C@@H]3CCC(C)(C)N3)CC2)c2ccncc21)C(C)C [Example 27, (S)-2-(3-(1-(5,5-Dimethylpyrrolidine-2-carbonyl)piperidine-4-carbonyl)-1H-pyrrolo[2,3-c]pyridin-1-yl)-5-fluoro-N,N-diisopropylbenzamide] | 38 nM | 1.9 ×10⁻⁶ cm/s | 
8 | CCN(C(=O)c1cc(F)ccc1-n1cc(C(=O)C2CCN(C(=O)[C@H]3NC[C@@H]4C[C@@H]43)CC2)c2ccncc21)C(C)C [Example 28, 2-(3-(1-((1S,2S,5R)-3-Azabicyclo[3.1.0]hexane-2-carbonyl)piperidine-4-carbonyl)-1H-pyrrolo[2,3-c]pyridin-1-yl)-N-ethyl-5-fluoro-N-isopropylbenzamide] | 39 nM | 1.1 ×10⁻⁶ cm/s | 
9 | CCN(C(=O)c1cc(F)ccc1-n1cc(C(=O)C2CCN(C(=O)[C@H]3N[C@H]4C[C@@H]3[C@@H](F)C4)CC2)c2ccncc21)C(C)C [Example 30, N-Ethyl-5-fluoro-2-(3-(1-((1S,3S,4S,5S)-5-fluoro-2-azabicyclo[2.2.1]heptane-3-carbonyl)piperidine-4-carbonyl)-1H-pyrrolo[2,3-c]pyridin-1-yl)-N-isopropylbenzamide] | 44 nM | 0.8 ×10⁻⁶ cm/s | 
10 | CCN(C(=O)c1cc(F)ccc1-n1cc(C(=O)C2CCN(C(=O)[C@H]3N[C@@H]4CC[C@H]3C4)CC2)c2ccncc21)C(C)C [Example 31, 2-(3-(1-((1R,3S,4S)-2-Azabicyclo[2.2.1]heptane-3-carbonyl)piperidine-4-carbonyl)-1H-pyrrolo[2,3-c]pyridin-1-yl)-N-ethyl-5-fluoro-N-isopropylbenzamide] | 38 nM | 0.1 ×10⁻⁶ cm/s | 

Second part, the compound after the results:

Row | IC50 (MOLM-13 cells; Homo sapiens, MOLM-13, 168 h) | Papp A→B [1] | IC50 (MOLM-13 cells) | SMILES
11 | 111 nM | 0.5 ×10⁻⁶ cm/s |  | C[C@@H]1CCC[C@H](C)N1C(=O)c1cc(F)ccc1-n1cc(C(=O)C2CCN(C(=O)[C@H]3N[C@@H]4CC[C@H]3C4)CC2)c2ccncc21 [Example 33, (1-((1R,3S,4S)-2-Azabicyclo[2.2.1]heptane-3-carbonyl)piperidin-4-yl)(1-(2-((2R,6S)-2,6-dimethylpiperidine-1-carbonyl)-4-fluorophenyl)-1H-pyrrolo[2,3-c]pyridin-3-yl)methanone]
12 | 62 nM | 0.2 ×10⁻⁶ cm/s |  | C[C@@H]1COC[C@@H](C)N1C(=O)c1cc(F)ccc1-n1cc(C(=O)C2CCN(C(=O)[C@H]3N[C@@H]4CC[C@H]3C4)CC2)c2ccncc21 [Example 34, (1-((1R,3S,4S)-2-Azabicyclo[2.2.1]heptane-3-carbonyl)piperidin-4-yl)(1-(2-((3R,5R)-3,5-dimethylmorpholine-4-carbonyl)-4-fluorophenyl)-1H-pyrrolo[2,3-c]pyridin-3-yl)methanone]
13 | 60 nM | 0.6 ×10⁻⁶ cm/s |  | CC(C)n1nccc1-c1cc(F)ccc1-n1cc(C(=O)C2CCN(C(=O)[C@H]3N[C@@H]4CC[C@H]3C4)CC2)c2ccncc21 [Example 36, (1-((1R,3S,4S)-2-Azabicyclo[2.2.1]heptane-3-carbonyl)piperidin-4-yl)(1-(4-fluoro-2-(1-isopropyl-1H-pyrazol-5-yl)phenyl)-1H-pyrrolo[2,3-c]pyridin-3-yl)methanone]
14 | 68 nM | 1 ×10⁻⁶ cm/s |  | CC(C)c1ncncc1-c1cc(F)ccc1-n1cc(C(=O)C2CCN(C(=O)[C@H]3N[C@@H]4CC[C@H]3C4)CC2)c2ccncc21 [Example 37, (1-((1R,3S,4S)-2-Azabicyclo[2.2.1]heptane-3-carbonyl)piperidin-4-yl)(1-(4-fluoro-2-(4-isopropylpyrimidin-5-yl)phenyl)-1H-pyrrolo[2,3-c]pyridin-3-yl)methanone]
15 | 27 nM | 1.5 ×10⁻⁶ cm/s |  | CC(C)c1ncccc1-c1cc(F)ccc1-n1cc(C(=O)C2CCN(C(=O)[C@H]3N[C@@H]4CC[C@H]3C4)CC2)c2ccncc21 [Example 38, (1-((1R,3S,4S)-2-Azabicyclo[2.2.1]heptane-3-carbonyl)piperidin-4-yl)(1-(4-fluoro-2-(2-isopropylpyridin-3-yl)phenyl)-1H-pyrrolo[2,3-c]pyridin-3-yl)methanone]
16 | 61 nM | 0.3 ×10⁻⁶ cm/s |  | O=C(c1cn(-c2ccc(F)cc2-c2cncnc2C2CC2)c2cnccc12)C1CCN(C(=O)[C@H]2N[C@@H]3CC[C@H]2C3)CC1 [Example 40, (1-((1R,3S,4S)-2-Azabicyclo[2.2.1]heptane-3-carbonyl)piperidin-4-yl)(1-(2-(4-cyclopropylpyrimidin-5-yl)-4-fluorophenyl)-1H-pyrrolo[2,3-c]pyridin-3-yl)methanone]
17 | 42 nM | 0.5 ×10⁻⁶ cm/s |  | CC(C)c1ccncc1-c1cc(F)ccc1-n1cc(C(=O)C2CCN(C(=O)[C@H]3N[C@@H]4CC[C@H]3C4)CC2)c2ccncc21 [Example 41, (1-((1R,3S,4S)-2-Azabicyclo[2.2.1]heptane-3-carbonyl)piperidin-4-yl)(1-(4-fluoro-2-(4-isopropylpyridin-3-yl)phenyl)-1H-pyrrolo[2,3-c]pyridin-3-yl)methanone]
18 | 40 nM | 1.3 ×10⁻⁶ cm/s |  | CC(C)c1ncsc1-c1cc(F)ccc1-n1cc(C(=O)C2CCN(C(=O)[C@H]3N[C@@H]4CC[C@H]3C4)CC2)c2ccncc21.O=CO [Example 42, (1-((1R,3S,4S)-2-Azabicyclo[2.2.1]heptane-3-carbonyl)piperidin-4-yl)(1-(4-fluoro-2-(4-isopropylthiazol-5-yl)phenyl)-1H-pyrrolo[2,3-c]pyridin-3-yl)methanone 1·formic acid]
19 | 73 nM | 1 ×10⁻⁶ cm/s |  | CC(C)N(C(=O)c1cc(F)ccc1-n1cc(C(=O)C2CCN(C(=O)[C@H]3N[C@@H]4CC[C@H]3C4)CC2)c2c(F)cncc21)C(C)C.O=CO [Example 44, 2-(3-(1-((1R,3S,4S)-2-Azabicyclo[2.2.1]heptane-3-carbonyl)piperidine-4-carbonyl)-4-fluoro-1H-pyrrolo[2,3-c]pyridin-1-yl)-5-fluoro-N,N-diisopropylbenzamide 1·formic acid]
20 | 52 nM | 0.3 ×10⁻⁶ cm/s |  | CCN(C(=O)c1cc(F)ccc1-n1c(C)c(C(=O)C2CCN(C(=O)[C@H]3N[C@@H]4CC[C@H]3C4)CC2)c2ccncc21)C(C)C [Example 46, 2-(3-(1-((1R,3S,4S)-2-Azabicyclo[2.2.1]heptane-3-carbonyl)piperidine-4-carbonyl)-2-methyl-1H-pyrrolo[2,3-c]pyridin-1-yl)-N-ethyl-5-fluoro-N-isopropylbenzamide]
21 |  | 1.9 ×10⁻⁶ cm/s | 42 nM | CCN(C(=O)c1cc(F)ccc1-n1c(C)c(C(=O)C2CCN(C(=O)[C@H]3NC[C@@H]4C[C@@H]43)CC2)c2ccncc21)C(C)C [Example 47, 2-(3-(1-((1S,2S,5R)-3-Azabicyclo[3.1.0]hexane-2-carbonyl)piperidine-4-carbonyl)-2-methyl-1H-pyrrolo[2,3-c]pyridin-1-yl)-N-ethyl-5-fluoro-N-isopropylbenzamide]
22 | 49 nM | 4 ×10⁻⁶ cm/s |  | Cc1c(C(=O)C2CCN(C(=O)[C@H]3NC[C@@H]4C[C@@H]43)CC2)c2ccncc2n1-c1ccc(F)cc1-c1cnccc1C(C)C [Example 54, (1-((1S,2S,5R)-3-Azabicyclo[3.1.0]hexane-2-carbonyl)piperidin-4-yl)(1-(4-fluoro-2-(4-isopropylpyridin-3-yl)phenyl)-2-methyl-1H-pyrrolo[2,3-c]pyridin-3-yl)methanone]
